Experimental data reported in patent US11440913B2, “Aminoimidazopyridazines as kinase inhibitors” (BRISTOL-MYERS SQUIBB COMPANY, priority 2017, dated 2022).
Counter-ions that a name gives are not always drawn. Like-named read-outs stand apart in the source and are kept apart here.

What was measured:
[1] = target: His-GST-TVMV-hRIPK1(1-324) (Homo sapiens (Human), UniProt Q13546); test: RIPK1 HTRF Binding Assay; conditions: HTRF binding, 1 h at rt; read-out: RIPK1 (IC50)
Method in brief: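 HTRF probe-displacement binding: 1 nM His-GST-TVMV-hRIPK1(1-324) (baculovirus construct), 90.6 nM probe, 0.2 nM anti-GST-Tb in 20 mM HEPES, 10 mM MgCl2, 0.015% Brij-35, 4 mM DTT, 0.05 mg/mL BSA. Incubated 1 h at rt; FRET 520/495 nm ratio, inhibition relative to DMSO-only wells.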

[2] = tested on: MLKL phosphorylation in HT29-L23 human colorectal adenocarcinoma cells; test: MLKL Phosphorylation High-Content Assay; type: cell-based; conditions: 6 h, necroptosis induced with TNFα, SMAC mimetic and Z-VAD, read-out: pMLKL (IC50)
Method in brief: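 HT29-L23 cells pretreated 30 min at 37 °C with compound (6.25 to 0.106 μM final), then necroptosis induced with TNFα 35 ng/mL, SMAC mimetic 700 nM and Z-VAD 140 nM for 6 h. Fixed cells immunostained for MLKL pS358 and imaged; IC50 and Ymax from 4-parameter logistic fit.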

Chain of His-GST-TVMV-hRIPK1(1-324) (Q13546 1-324): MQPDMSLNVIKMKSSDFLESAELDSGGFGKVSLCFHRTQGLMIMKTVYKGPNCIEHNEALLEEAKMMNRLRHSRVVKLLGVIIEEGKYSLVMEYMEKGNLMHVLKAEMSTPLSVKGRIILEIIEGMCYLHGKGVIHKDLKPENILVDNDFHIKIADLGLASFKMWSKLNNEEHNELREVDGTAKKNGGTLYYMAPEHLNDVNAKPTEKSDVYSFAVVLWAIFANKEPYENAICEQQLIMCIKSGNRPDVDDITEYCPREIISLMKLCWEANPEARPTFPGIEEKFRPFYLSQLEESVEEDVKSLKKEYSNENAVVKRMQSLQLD

SMILES	IC50 [1] [nM]	IC50 ([2]; Homo sapiens) [nM]	IC50 [2] [nM]
CC(=O)Nc1cn2nc(-c3cncc(C(=O)NCc4cc(OC(F)(F)F)ccc4F)c3)ccc2n1 [Example 237, 5-{2-acetamidoimidazo[1,2-b]pyridazin-6-yl}-N-{[2-fluoro-5-(trifluoromethoxy)phenyl]methyl} pyridine-3-carboxamide]	45	77	–
CC(=O)Nc1cn2nc(-c3cncc(C(=O)NCCC(C)c4ccccc4)c3)ccc2n1 (stereo not shown) [Example 238, 5-{2-acetamidoimidazo[1,2-b]pyridazin-6-yl}-N-(3-phenylbutyl) pyridine-3-carboxamide]	41	356	–
CC(=O)Nc1cn2nc(-c3cncc(C(=O)NCc4ccccc4OCC4CC4)c3)ccc2n1 [Example 239, N-{[2-(cyclopropylmethoxy)phenyl]methyl}-5-{2-acetamidoimidazo [1,2-b]pyridazin-6-yl}pyridine-3-carboxamide]	13	158	–
CC(=O)Nc1cn2nc(-c3cncc(C(=O)NCc4c(F)cccc4OC4CCCC4)c3)ccc2n1 [Example 240, N-{[2-(cyclopentyloxy)-6-fluorophenyl]methyl}-5-{2-acetamidoimidazo[1,2-b]pyridazin-6-yl}pyridine-3-carboxamide]	5	8	–
CC(=O)Nc1cn2nc(-c3cncc(C(=O)NCc4ncccc4OC4CCCC4)c3)ccc2n1 [Example 241, N-{[3-(cyclopentyloxy)pyridin-2-yl]methyl}-5-{2-acetamidoimidazo [1,2-b]pyridazin-6-yl}pyridine-3-carboxamide]	35	277	–
CC(=O)Nc1cn2nc(-c3cncc(C(=O)NCc4cc(F)ccc4OC4CCCC4)c3)ccc2n1 [Example 242, N-{[2-(cyclopentyloxy)-5-fluorophenyl]methyl}-5-{2-acetamidoimidazo[1,2-b]pyridazin-6-yl}pyridine-3-carboxamide]	4	11	–
[2H]C([2H])(Oc1c(F)cc(F)cc1CNC(=O)c1cc(-c2ccc3nc(NC(=O)CC)cn3n2)cnc1OC)C1CC1 [Example 243, N-({2-[cyclopropyl(deutero)methoxy]-3,5-difluorophenyl}methyl)-2-methoxy-5-{2-propanamidoimidazo[1,2-b]pyridazin-6-yl}pyridine-3-carboxamide]	2	3	–
[2H]C([2H])(NC(=O)c1cc(-c2ccc3nc(NC(=O)CC)cn3n2)cnc1OC)c1cc(OC(F)(F)F)ccc1F [Example 244, N-{[2-fluoro-5-(trifluoromethoxy)phenyl](deutero)methyl}-2-methoxy-5-{2-propanamidoimidazo[1,2-b]pyridazin-6-yl}pyridine-3-carboxamide]	257	4	–
CCC(=O)Nc1cn2nc(-c3cnc(OC)c(C(=O)N[C@H](C)c4cc(OC(F)(F)F)ccc4F)c3)ccc2n1 [Example 245, N-[(1R)-1-[2-fluoro-5-(trifluoromethoxy)phenyl]ethyl]-2-methoxy-5-{2-propanamidoimidazo[1,2-b]pyridazin-6-yl}pyridine-3-carboxamide]	486	132	–
CCC(=O)Nc1cn2nc(-c3cnc(OC)c(C(=O)NCC[C@H](O)c4ccc(Cl)cc4)c3)ccc2n1 [Example 246, N-[(3S)-3-(4-chlorophenyl)-3-hydroxypropyl]-2-methoxy-5-{2-propanamidoimidazo[1,2-b]pyridazin-6-yl}pyridine-3-carboxamide]	92	105	–
CCC(=O)Nc1cn2nc(-c3cnc(OC)c(C(=O)NCc4cc(F)cc(F)c4OC4CCOCC4)c3)ccc2n1 [Example 247, N-{[3,5-difluoro-2-(oxan-4-yloxy)phenyl]methyl}-2-methoxy-5-{2-propanamidoimidazo[1,2-b]pyridazin-6-yl}pyridine-3-carboxamide]	2	2	–
CCC(=O)Nc1cn2nc(-c3cnc(OC)c(C(=O)NCc4ccccc4OC(F)(F)F)c3)ccc2n1 [Example 248, 2-methoxy-5-{2-propanamidoimidazo[1,2-b]pyridazin-6-yl}-N-{[2-(trifluoromethoxy)phenyl]methyl}pyridine-3-carboxamide, TFA]	13	55	–
CCC(=O)Nc1cn2nc(-c3cnc(OC)c(C(=O)NCc4ccc(F)c(F)c4OCC4CC4)c3)ccc2n1 [Example 249, N-{[2-(cyclopropylmethoxy)-3,4-difluorophenyl]methyl}-2-methoxy-5-{2-propanamidoimidazo[1,2-b]pyridazin-6-yl}pyridine-3-carboxamide]	29	132	–
CCC(=O)Nc1cn2nc(-c3cnc(OC)c(C(=O)NCc4cc(OCC5CC5)ccc4F)c3)ccc2n1 [Example 250, N-{[5-(cyclopropylmethoxy)-2-fluorophenyl]methyl}-2-methoxy-5-{2-propanamidoimidazo[1,2-b]pyridazin-6-yl}pyridine-3-carboxamide]	18	61	–
CC(=O)Nc1nc2ccc(-c3cnc(C)c(C(=O)NCc4cccc(OC(F)(F)F)c4)c3)nn2c1C [Example 251, 5-{2-acetamido-3-methylimidazo[1,2-b]pyridazin-6-yl}-2-methyl-N-{[3-(trifluoromethoxy)phenyl]methyl}pyridine-3-carboxamide]	53	305	–
CC(=O)Nc1nc2ccc(-c3cnc(C)c(C(=O)NCc4cc(C(F)(F)F)ccc4F)c3)nn2c1C [Example 252, 5-{2-acetamido-3-methylimidazo[1,2-b]pyridazin-6-yl}-N-{[2-fluoro-5-(trifluoromethyl)phenyl]methyl}-2-methylpyridine-3-carboxamide]	27	133	–
CC(=O)Nc1nc2ccc(-c3cnc(C)c(C(=O)NCc4cc(OC(F)(F)F)ccc4F)c3)nn2c1C [Example 253, 5-{2-acetamido-3-methylimidazo[1,2-b]pyridazin-6-yl}-N-{[2-fluoro-5-(trifluoromethoxy)phenyl]methyl}-2-methylpyridine-3-carboxamide]	14	53	–
COc1ncc(-c2ccc3nc(NC(C)=O)c(C)n3n2)cc1C(=O)NCc1cc(C(F)(F)F)ccc1F [Example 254, 5-{2-acetamido-3-methylimidazo[1,2-b]pyridazin-6-yl}-N-{[2-fluoro-5-(trifluoromethyl)phenyl]methyl}-2-methoxypyridine-3-carboxamide]	101	66	–
COc1ncc(-c2ccc3nc(NC(C)=O)c(C)n3n2)cc1C(=O)NCc1ccc(F)c(OC(F)(F)F)c1 [Example 255, 5-{2-acetamido-3-methylimidazo[1,2-b]pyridazin-6-yl}-N-{[4-fluoro-3-(trifluoromethoxy)phenyl]methyl}-2-methoxypyridine-3-carboxamide]	87	263	–
COc1ncc(-c2ccc3nc(NC(C)=O)c(C)n3n2)cc1C(=O)NCCC(C)c1ccccc1 (stereo not shown) [Example 256, 5-{2-acetamido-3-methylimidazo[1,2-b]pyridazin-6-yl}-2-methoxy-N-(3-phenylbutyl)pyridine-3-carboxamide, TFA]	9	27	–
COc1ncc(-c2ccc3nc(NC(C)=O)c(C)n3n2)cc1C(=O)NCc1cccc(OC(F)(F)F)c1 [Example 257, 5-{2-acetamido-3-methylimidazo[1,2-b]pyridazin-6-yl}-2-methoxy-N-{[3-(trifluoromethoxy)phenyl]methyl}pyridine-3-carboxamide, TFA]	61	69	–
COc1ncc(-c2ccc3nc(NC(C)=O)c(C)n3n2)cc1C(=O)NCc1ccccc1OC(F)(F)F [Example 258, 5-{2-acetamido-3-methylimidazo[1,2-b]pyridazin-6-yl}-2-methoxy-N-{[2-(trifluoromethoxy)phenyl]methyl}pyridine-3-carboxamide, TFA]	72	57	–
[2H]C([2H])(Oc1c(F)cc(F)cc1CNC(=O)c1cc(-c2ccc3nc(NC(C)=O)c(C)n3n2)cnc1OC)C1CC1 [Example 259, N-({2-[cyclopropyl(deutero)methoxy]-3,5-difluorophenyl}methyl)-5-{2-acetamido-3-methylimidazo[1,2-b]pyridazin-6-yl}-2-methoxypyridine-3-carboxamide]	3	13	–
COCC(=O)Nc1cn2nc(-c3cnc(OC)c(C(=O)NCc4cc(OCC5CC5)ccc4F)c3)ccc2n1 [Example 260, N-{[5-(cyclopropylmethoxy)-2-fluorophenyl]methyl}-2-methoxy-5-[2-(2-methoxyacetamido)imidazo[1,2-b]pyridazin-6-yl]pyridine-3-carboxamide]	18	80	–
COCC(=O)Nc1cn2nc(-c3cnc(OC)c(C(=O)NCc4cc(F)cc(F)c4OCC4CC4)c3)ccc2n1 [Example 261, N-{[2-(cyclopropylmethoxy)-3,5-difluorophenyl]methyl}-2-methoxy-5-[2-(2-methoxyacetamido)imidazo[1,2-b]pyridazin-6-yl]pyridine-3-carboxamide, TFA]	7	–	8
COCC(=O)Nc1cn2nc(-c3cnc(OC)c(C(=O)NCc4cc(OC(F)(F)F)ccc4F)c3)ccc2n1 [Example 262, N-{[2-fluoro-5-(trifluoromethoxy)phenyl]methyl}-2-methoxy-5-[2-(2-methoxyacetamido)imidazo[1,2-b]pyridazin-6-yl]pyridine-3-carboxamide]	39	74	–
